Series [1] deals with T1, α-glucosidase (Saccharomyces cerevisiae, UniProt P53341). As to conditions: cited from earlier work.
The target in series [2] is T1, α-glucosidase. Description: Fluorescence quenching spectroscopy. Type of series: binding. As to conditions: 35 °C.
For series [3], the target named is T1, α-glucosidase. Nature of the series: Fluorescence quenching spectroscopy. Type of series: binding. Set-up: ΔS: unit not given here. Conditions: for Kq quenching rate constant / n binding sites: 25 °C; for ΔS: standard thermodynamic values from KA. On the procedure:
Fluorescence spectrometry was used for studying the interactions between selected α-glucosidase inhibitors (7a, 7d, and 7h) and the enzyme at 25 °C and pH 6.8 to determine the binding constants, number of binding sites, and thermodynamic parameters of the corresponding interactions. Herein, the maximum fluorescence intensity of α-glucosidase was obtained at 340 nm, which can be attributed to tryptophan, tyrosine, and phenylalanine residues that can act as intrinsic fluorescence probes with excitation at 280 nm.
The fluorescence measurements were performed on a Synergy HTX multi-mode reader (Biotek Instruments, Winooski, VT, USA) equipped with a quartz cuvette of 10 mm. The excitation wavelength was 280 nm and the emission spectra were measured in the range from 300 to 440 nm with 10 accumulations for each collection point. The emission spectrum was corrected for the background fluorescence from the buffer solution and for the inner filter effect promoted by the inhibitors. The protein-inhibitors interaction measurements were performed by collecting the fluorescence.
The fluorescence quenching of the protein (P) by a drug or inhibitor (D) was analyzed by Stern−Volmer equation (Eq. 1), where F0 and F are the fluorescence intensity in the absence and presence of a quencher (inhibitor), respectively. [D] is the concentration of inhibitor, Kq is the quenching rate constant, τ0 is the average life-time of the molecule without the quencher (10^−8 s), and KSV is the Stern−Volmer dynamic quenching constant.1 F0/F=1+Kqτ0D=1+KSVD
The reaction of the protein (P) and a drug molecule or inhibitor (D) was considered as Eq. 2, where P is the protein, D is the drug molecule, and DnP is the new complex molecule with the binding constant of KA.2 P+D→DnP
As the number of the binding site of protein and drug is respectively n and 1, the equivalent concentration of the complex DnP is n[DnP]; the equivalent concentration of the protein is n[P] and the equivalent concentration of the drug is [D]. In this respect, the KA value is calculated based on the Eq. (3).3 KA=nDnP/DnP
If the total concentration of protein is [Pt] and the total concentration of the drug is [Dt]: [Pt] = [Pf] + [DnP] and [Df] = [Dt] − n[DnP].
If protein (P) is the only fluorescence in the reaction system, thus:4 F0/F=Pt/Pf where F and F0 are the fluorescence intensity of protein in the presence and absence of drug D, respectively. Therefore, the relationship between the fluorescence intensity and the drug total concentration can be deduced from Eq. (5).5 F0/F=KADtF0/F0-F-nKAPt
Keeping the total concentration of protein at a definite value and varying the total concentration of the drug leads to obtaining the plot of F0/F as a function of [Dt] F0/(F0 − F) following with the calculation of KA.
The standard thermodynamic values were calculated according to Eqs. (6), (7), where ΔH, ΔG, and ΔS are enthalpy, free energy, and entropy changes, respectively. In the case of small changes in temperature, the enthalpy change can be considered as a constant and ΔH is calculated from Eq. (6) following with the calculation of ΔG and ΔS from Eq. (7).6 lnKA2/KA1=1/T1-1/T2ΔH/R 7 ΔG=-RTlnKA=ΔH-TΔS

Series [4] relates to HEK293 cell line. As to conditions: no reference given; cited from earlier work.

A word on the IC50: it is the concentration at which inhibition is half-maximal. The melting point is the temperature of the solid-liquid transition.

T1 sequence (P53341 whole entry): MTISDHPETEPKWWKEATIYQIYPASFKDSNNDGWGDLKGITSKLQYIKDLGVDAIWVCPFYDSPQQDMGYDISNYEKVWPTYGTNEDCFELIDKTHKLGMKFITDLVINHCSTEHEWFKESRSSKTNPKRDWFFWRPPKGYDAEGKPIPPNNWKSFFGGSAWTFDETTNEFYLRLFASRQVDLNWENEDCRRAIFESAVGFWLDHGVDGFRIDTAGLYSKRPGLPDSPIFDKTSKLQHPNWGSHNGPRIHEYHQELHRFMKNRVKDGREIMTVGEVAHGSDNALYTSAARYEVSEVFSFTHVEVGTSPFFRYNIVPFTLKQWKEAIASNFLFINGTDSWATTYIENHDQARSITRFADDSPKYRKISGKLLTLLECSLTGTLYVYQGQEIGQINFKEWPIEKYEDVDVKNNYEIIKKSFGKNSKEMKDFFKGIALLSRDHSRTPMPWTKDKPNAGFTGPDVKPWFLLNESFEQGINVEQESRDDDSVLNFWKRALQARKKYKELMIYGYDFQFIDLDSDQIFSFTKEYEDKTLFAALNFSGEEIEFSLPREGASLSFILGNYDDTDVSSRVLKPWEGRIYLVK

Consider `O=c1oc2ccccc2c(O)c1C(c1ccc(OCc2cn(Cc3ccccc3Cl)nn2)cc1)c1c(O)c2ccccc2oc1=O` [A], for which, in series [1], the IC50 was 13 ± 1.5 µM and the mode of inhibition entry is “competitive”.

Consider `O=C1Nc2ccccc2/C1=N/N=C/c1ccc(OCc2cn(Cc3ccccc3F)nn2)cc1` [C], for which, in series [1], the IC50 is 16.43 ± 0.01 µM and the mode of inhibition entry is listed as “competitively”.

Regarding `O=C(NN=Cc1ccccc1)c1ccc(OCc2cn(Cc3ccccc3)nn2)cc1` [Compound 7a, 4-((1-Benzyl-1H-1,2,3-triazol-4-yl)methoxy)-N′-benzylidenebenzohydrazide], the “Kq quenching rate constant” value in series [2] is 9e+15 M⁻¹ s⁻¹. In addition, in series [3], the “Kq quenching rate constant” value was found to be 1.5e+15 M⁻¹ s⁻¹, the n binding sites came out at 0.8 and the ΔS is reported as 48.37.

With `O=C(NN=Cc1ccccc1)c1ccc(OCc2cn(Cc3ccc(F)cc3)nn2)cc1` [Compound 7b, N′-Benzylidene-4-((1-(4-fluorobenzyl)-1H-1,2,3-triazol-4-yl)methoxy)benzohydrazide], the melting point is 160 to 163 °C. On the same count and under the same terms, in the case of `O=C(NN=Cc1ccccc1)c1ccc(OCc2cn(Cc3ccccc3Cl)nn2)cc1` [Compound 7c, N′-Benzylidene-4-((1-(2-chlorobenzyl)-1H-1,2,3-triazol-4-yl)methoxy)benzohydrazide] it was 203 to 207 °C. As to `Cc1ccc(Cn2cc(COc3ccc(C(=O)NN=Cc4ccccc4)cc3)nn2)cc1` [Compound 7d, N′-Benzylidene-4-((1-(4-methylbenzyl)-1H-1,2,3-triazol-4-yl)methoxy)benzohydrazide], the melting point lay in the range of 154 to 156 °C. Moreover, the “Kq quenching rate constant” value in series [2] was determined as 1e+15 M⁻¹ s⁻¹. Besides, in series [3], the “Kq quenching rate constant” value turned out to be 4.2e+15 M⁻¹ s⁻¹, the n binding sites worked out at 0.1 and the ΔS is 146.0. `O=C(NN=Cc1ccc([N+](=O)[O-])cc1)c1ccc(OCc2cn(Cc3ccccc3)nn2)cc1` [Compound 7e, 4-((1-Benzyl-1H-1,2,3-triazol-4-yl)methoxy)-N′-(4-nitrobenzylidene)benzohydrazide] gave a melting point of 193 to 196 °C. As for `O=C(NN=Cc1ccc([N+](=O)[O-])cc1)c1ccc(OCc2cn(Cc3ccc(F)cc3)nn2)cc1` [Compound 7f, 4-((1-(4-Fluorobenzyl)-1H-1,2,3-triazol-4-yl)methoxy)-N′-(4-nitrobenzylidene)benzohydrazide], the melting point was 202 to 205 °C.

In the case of `O=C(NN=Cc1ccc([N+](=O)[O-])cc1)c1ccc(OCc2cn(Cc3ccccc3Cl)nn2)cc1` [Compound 7g, 4-((1-(2-Chlorobenzyl)-1H-1,2,3-triazol-4-yl)methoxy)-N′-(4-nitrobenzylidene)benzohydrazide], the melting point lay in the range of 204 to 206 °C. The compound `Cc1ccc(Cn2cc(COc3ccc(C(=O)NN=Cc4ccc([N+](=O)[O-])cc4)cc3)nn2)cc1` [Compound 7h, 4-((1-(4-Methylbenzyl)-1H-1,2,3-triazol-4-yl)methoxy)-N′-(4-nitrobenzylidene)benzohydrazide] displayed a melting point of 247 to 250 °C. Moreover, the “Kq quenching rate constant” value in series [2] came out at 6.8e+15 M⁻¹ s⁻¹. Further, in series [3], the “Kq quenching rate constant” value came out at 1e+15 M⁻¹ s⁻¹, the n binding sites was found to be 0.06 and the ΔS came out at 71.1.

In turn, `O=C(NN=Cc1ccc(Cl)cc1)c1ccc(OCc2cn(Cc3ccccc3)nn2)cc1` [Compound 7i, 4-((1-Benzyl-1H-1,2,3-triazol-4-yl)methoxy)-N′-(4-chlorobenzylidene)benzohydrazide] had a melting point of 211 to 214 °C. Compound `O=C(NN=Cc1ccc(Cl)cc1)c1ccc(OCc2cn(Cc3ccc(F)cc3)nn2)cc1` [Compound 7j, N′-(4-Chlorobenzylidene)-4-((1-(4-fluorobenzyl)-1H-1,2,3-triazol-4-yl)methoxy)benzohydrazide] showed a melting point of 236 to 238 °C. Regarding `O=C(NN=Cc1ccc(Cl)cc1)c1ccc(OCc2cn(Cc3ccccc3Cl)nn2)cc1` [Compound 7k, 4-((1-(2-Chlorobenzyl)-1H-1,2,3-triazol-4-yl)methoxy)-N′-(4-chlorobenzylidene)benzohydrazide], the melting point was in the range of 246 to 248 °C. Compound `Cc1ccc(Cn2cc(COc3ccc(C(=O)NN=Cc4ccc(Cl)cc4)cc3)nn2)cc1` [Compound 7l, N′-(4-Chlorobenzylidene)-4-((1-(4-methylbenzyl)-1H-1,2,3-triazol-4-yl)methoxy)benzohydrazide] gave a melting point of 216 to 218 °C. For the compound `COc1ccc(C=NNC(=O)c2ccc(OCc3cn(Cc4ccccc4)nn3)cc2)cc1` [Compound 7m, 4-((1-Benzyl-1H-1,2,3-triazol-4-yl)methoxy)-N′-(4-methoxybenzylidene)benzohydrazide], the melting point is 237 to 240 °C.

The compound `COc1ccc(C=NNC(=O)c2ccc(OCc3cn(Cc4ccccc4Cl)nn3)cc2)cc1` [Compound 7o, 4-((1-(2-Chlorobenzyl)-1H-1,2,3-triazol-4-yl)methoxy)-N′-(4-methoxybenzylidene)benzohydrazide] gave a melting point of 222 to 225 °C. On to `COc1ccc(C=NNC(=O)c2ccc(OCc3cn(Cc4ccc(C)cc4)nn3)cc2)cc1` [Compound 7p, N′-(4-Methoxybenzylidene)-4-((1-(4-methylbenzyl)-1H-1,2,3-triazol-4-yl)methoxy)benzohydrazide], for which the melting point is 224 to 228 °C. Regarding `CCc1ccc(NC(=O)Cn2cc(COc3ccc(-c4nc5ccccc5[nH]4)cc3)nn2)cc1` [Compound B], in series [1], the concentration for half-maximal inhibition (IC50) was 25.2 ± 0.9 µM. As to `COC(=O)c1c(C)cc(OC(=O)c2c(C)cc(O)c(/C=N/NC(=O)Cc3ccccc3)c2O)c(C)c1O` [E], the “toxicity on the HEK293 cell line” value in series [4] is reported as “without toxicity”.

These data come from article PMC10235848, “Novel N′-substituted benzylidene benzohydrazides linked to 1,2,3-triazoles: potent α-glucosidase inhibitors” (Scientific Reports, 2023).
